Laboratory results: article PMC5942844, “Identification and characterization of the Fasciola hepatica sodium- and chloride-dependent taurine transporter” (PLoS Neglected Tropical Diseases, 2018)
Where two headings read alike, the source gives them in different places.

How the values were obtained:
[1] = molecular target: T1, F. hepatica taurine transporter (FhTauT) (Fasciola hepatica, UniProt A0A2R4LGM2); assay: cell-based; conditions: for EC50: 0.1 μM [3H]taurine; for IC50: IC50 of unlabeled taurine for [3H]taurine uptake; for inhibition of the transporter (taurine uptake): inhibitors of GABA uptake or GABA degradation
T1 sequence (A0A2R4LGM2 1-647): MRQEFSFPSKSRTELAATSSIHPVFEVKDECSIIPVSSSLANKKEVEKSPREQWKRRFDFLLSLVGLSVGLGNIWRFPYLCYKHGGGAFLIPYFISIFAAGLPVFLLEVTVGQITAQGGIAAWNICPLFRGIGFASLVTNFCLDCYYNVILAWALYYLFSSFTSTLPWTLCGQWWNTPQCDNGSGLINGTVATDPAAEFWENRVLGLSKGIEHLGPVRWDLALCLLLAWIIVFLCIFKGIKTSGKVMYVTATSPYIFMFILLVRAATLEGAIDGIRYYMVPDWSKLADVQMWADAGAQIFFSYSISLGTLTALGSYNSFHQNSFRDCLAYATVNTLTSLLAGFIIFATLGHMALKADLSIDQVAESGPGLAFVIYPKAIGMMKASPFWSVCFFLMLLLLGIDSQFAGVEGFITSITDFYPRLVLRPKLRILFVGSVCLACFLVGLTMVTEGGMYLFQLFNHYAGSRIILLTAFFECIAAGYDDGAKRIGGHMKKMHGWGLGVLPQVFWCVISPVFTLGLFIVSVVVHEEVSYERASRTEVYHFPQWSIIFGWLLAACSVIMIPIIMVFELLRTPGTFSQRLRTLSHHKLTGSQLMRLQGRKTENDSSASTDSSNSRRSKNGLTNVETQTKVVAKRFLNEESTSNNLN
Experimental: (§1) Human embryonic kidney-293 (HEK293 (ATCC CRL-1573, LGC standards Wesel, Germany)) cells, were grown in Dulbecco`s modified Eagle medium (DMEM) supplemented with 10% fetal bovine serum (FCS Nuaille, France), 100 units/ml penicillin and 100 μg/ml streptomycin at 37°C and with 5% CO2 in a humidified incubator. Cells were transfected with plasmids encoding fluorescently tagged or untagged versions of F. hepatica (FhTauT) and H. sapiens (HsTauT) taurine transporter using Jet Prime transfection reagent (Polyplus-transfection, France). To generate monoclonal cell lines stably expressing the transporters, transfected cells were subjected to and selected with the concentration of 0.2 mg/ml geneticin (G418) for 10 days. Surviving cells forming colonies were separated and analyzed for membrane localization of transporters and transport of taurine. After the selection process cells were kept at 50 μg/ml G418 to keep the selection pressure.
(§2) For saturation uptake experiments, cells were plated the day before the experiment at a density of about 50,000 cells/well onto poly (D-lysine)-coated 48-well culture plates (CytoOne, USA). On the day of the experiment, cells were washed with prewarmed Krebs-HEPES buffer twice (KHB) (120 mM NaCl, 3 mM KCl, 2 mM CaCl2, 2 mM MgCl2, 20 mM glucose, 10 mM HEPES, pH 7.3). Then, cells were incubated in KHB containing tracer amounts (0.1 μM) of [^3H]taurine, (19.1 Ci/mmol) (Perkin Elmer, USA) together with increasing concentrations of non-labeled taurine 10 min. The reaction was terminated after 10 minutes by removing the medium followed by rapid rinsing of cells with ice-cold assay buffer. Subsequently, cells were lysed with 0.5 ml of 1% sodium dodecyl sulfate (SDS) and transferred into scintillation vials for liquid scintillation counting. Non-specific uptake was determined by incubating cells in the presence of the blocker β-alanine (100 mM) before and during the experiment and subtracted from uptake values. Data were fit to a Michaelis-Menten equation.
(§3) Chloride-free KHB was prepared to examine the chloride dependence of both, FhTauT and HsTauT using acetate salts instead of chloride salts. Likewise, NaCl was replaced by choline chloride to examine the sodium requirement. Uptake experiments were performed as described above using 0.1 μM [^3H]taurine in sodium- and chloride-free modified KHB, respectively, mixed with increasing amounts of NaCl containing KHB thereby varying Na^+ and respectively Cl^- concentration from 0–120 mM. The inhibition experiments were performed in analogous manner with 0.1 μM [^3H]taurine and the logarithmically spaced concentrations of inhibitors.

[2] = molecular target: T2, human taurine transporter (HsTauT) (Homo sapiens, UniProt P31641); assay: [3H]taurine uptake by HEK293 cells stably expressing the human taurine transporter; conditions: for EC50: 0.1 μM [3H]taurine; for IC50: IC50 of unlabeled taurine for [3H]taurine uptake
T2 sequence (P31641 1-620): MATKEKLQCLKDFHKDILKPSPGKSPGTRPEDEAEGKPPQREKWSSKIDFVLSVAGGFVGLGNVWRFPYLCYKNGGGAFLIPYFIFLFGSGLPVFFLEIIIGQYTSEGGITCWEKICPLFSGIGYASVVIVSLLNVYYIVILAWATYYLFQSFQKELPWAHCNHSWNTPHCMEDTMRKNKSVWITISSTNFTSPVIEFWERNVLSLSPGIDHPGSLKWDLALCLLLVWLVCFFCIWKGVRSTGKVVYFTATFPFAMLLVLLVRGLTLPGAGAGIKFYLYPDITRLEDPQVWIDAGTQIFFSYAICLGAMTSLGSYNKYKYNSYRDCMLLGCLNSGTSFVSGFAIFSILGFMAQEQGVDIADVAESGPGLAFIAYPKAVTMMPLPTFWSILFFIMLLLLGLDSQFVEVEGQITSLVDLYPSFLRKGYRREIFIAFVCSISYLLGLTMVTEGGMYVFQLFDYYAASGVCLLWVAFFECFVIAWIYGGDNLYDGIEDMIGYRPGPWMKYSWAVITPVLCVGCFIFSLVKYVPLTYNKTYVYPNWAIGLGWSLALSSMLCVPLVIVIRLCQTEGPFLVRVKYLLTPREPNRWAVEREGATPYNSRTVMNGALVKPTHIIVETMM
Experimental: as §1, §2, §3

adult F. hepatica = assay type: cell-based; conditions: for time all flukes alive and motile: Hédon-Fleig medium; for survival of flukes: 4 h
Experimental: Fig 8 Survival of adult F. hepatica in bile acid-containing medium in the presence and absence of taurine. A: Adult flukes (12 flukes/condition in individual wells) were incubated at 37°C and 5% CO2 in a humidified atmosphere in Hédon Feig medium in the absence (control, closed circles) or presence of 50 μM taurine (closed circle), of 2 mM GES (GES, closed triangle) or of bile acids (closed triangle, 5 mM cholic acid, 1.5 mM deoxycholic acid and 0.5 mM chenodeoxycholic acid). The number of dead flukes was recorded at the indicated time points. B: Adult flukes were incubated at 37°C and 5% CO2 in a humidified atmosphere in Hédon Feig medium in the absence (control) or presence of bile acids (5 mM cholic acid, 1.5 mM deoxycholic acid and 0.5 mM chenodeoxycholic acid). Where indicated, the medium contained, in addition, 50 μM taurine or the combination of 50 μM taurine and 2 mM GES (GES) for 4h. The number of dead flukes was recorded at the end of the incubation period. The data are from three independent experiments with 11 to 12 flukes/condition. […] Thus, after Bonferroni correction for multiple testing (with α≤0.016), taurine afforded a statistically significant protection against bile acids.
F. hepatica was isolated from the bile ducts of cows slaughtered at Alpenrind GmbH (Salzburg, Austria). Flukes were kept in modified Hedon Fleig`s solution at 37°C and 5% CO2 in a humidified atmosphere. Before the experiment, flukes were maintained at 37°C for three days after extraction to clear them from bile acids. Living flukes (judged by observing movement after gently tapping them with metal forceps) were transferred into flasks containing either Hedon Fleig`s Solution alone or Hedon Fleig`s Solution supplemented with combinations of bile acids (5 mM cholic acid (CA), 1.5 mM deoxycholic acid (DCA) and […] chenodeoxycholic acid (CDC)), 50 μM taurine and 2 mM guanidinoethyl sulfonate (GES). Survival of flukes was determined again after four hours of treatment.

[3] = substrate: NCCS(=O)(=O)O; assay: cells, lysate or membranes; conditions: other: 10 min uptake, HEK293 cells; pH 7.3; 37.0 °C
[4] = read-out: EC50 of chloride for substrate uptake (apparent affinity), chloride replaced with acetate
[5] = read-out: EC50 of chloride for substrate uptake (apparent affinity), chloride replaced with acetate, listed as Cl^-
[6] = read-out: EC50 of Na+ for half-maximum stimulation of transport, sodium replaced with choline
[7] = HEK293, read-out: residual [3H]taurine uptake

Cl [chloride]
EC50 [1, 4]: 13.9 ± 3.1 mM
EC50 [1, 5]: 14 ± 3 mM
EC50 [2, 4]: 54.8 ± 6.9 mM
EC50 [2, 5]: 55 ± 7 mM

[Na+] [Na^+]
EC50 [1, 6]: 51.4 ± 6 mM
Hill coefficient of sodium saturation curve ([1]; sodium replaced with choline): 1.6±0.1
EC50 [2, 6]: 56.5 ± 7.1 mM
Hill coefficient of sodium saturation curve ([2]; sodium replaced with choline): 2.3±0.1

NCCS(=O)(=O)O [taurine, 2-aminoethanesulfonic acid]
IC50 ([1]; absence of GES): 0.0117 ± 0.0041 mM
IC50 ([1]; presence of 1 mM GES): 0.0187 ± 0.0067 mM
IC50 ([1]; presence of 3 mM GES): 0.016 ± 0.0042 mM
maximum velocity of uptake ([1]; [3H]taurine, HEK293 cells): 178 ± 2 pmol*10^−6 cells*min^-1
[3H]taurine accumulation relative to untransfected control cells ([1]; transfected vs untransfected HEK293 cells): about 10 fold
IC50 ([2]; absence of GES): 0.0412 ± 0.0082 mM
IC50 ([2]; presence of 0.1 mM GES): 0.0521 ± 0.0095 mM
IC50 ([2]; presence of 0.3 mM GES): 0.0989 ± 0.0201 mM
maximum velocity of uptake ([2]; [3H]taurine, HEK293 cells): 971.0 ± 60.3 pmol*10^−6 cells*min^-1
time all flukes alive and motile (adult F. hepatica; 50 μM taurine alone): at least 6 h
survival of flukes (adult F. hepatica; bile acids plus 50 μM taurine): about 80%

NC(N)=NCCS(=O)(=O)O [GES, guanidinoethyl sulfonate]
mode of inhibition of taurine uptake ([1]; Dixon plot, intersecting lines): non-competitive inhibitor
remaining activity at 1000 µM [1, 7]: ~75%
remaining activity at 3000 µM [1, 7]: ~40%
affinity of F. hepatica transporter relative to human transporter ([1]; comparison of residual uptake, Fig 6A vs 6C): about ten-fold lower
mode of inhibition of taurine uptake ([2]; Dixon plot, parallel lines): competitive inhibition
time all flukes alive and motile (adult F. hepatica; 2 mM GES alone): at least 6 h
survival of flukes (adult F. hepatica; bile acids plus 50 μM taurine plus 2 mM GES): 44%

C=CC(N)CCC(=O)O (stereo not drawn) [vigabatrin]
inhibition of the transporter (taurine uptake) [1]: failed to inhibit

Cc1ccsc1C(=CCCN1CCC[C@@H](C(=O)O)C1)c1sccc1C [tiagabine]
inhibition of the transporter (taurine uptake) [1]: failed to inhibit

B1: F. hepatica taurine transporter (FhTauT) (Fasciola hepatica) (protein)
chain: T1 sequence (A0A2R4LGM2 1-647)
Km [3]: 12.0 ± 0.5 µM

B2: human taurine transporter (HsTauT) (Homo sapiens) (protein)
chain: T2 sequence (P31641 1-620)
Km [3]: 41.0 ± 10.4 µM
